Here are results for one compound from patent US20110320392A1, “METHODS FOR PREDICTING CANCER RESPONSE TO EGFR INHIBITORS” (priority 2009, published 2011).

In experiment [1] the test system is A549. Description: erlotinib sensitivity, apoptosis assay after 48 h. Format: cell-based, human. The conditions noted are these: NSCLC cell line A549, apoptosis assay after 48 h. As for the experimental part: (§1) The lung cancer cell lines were analyzed for in vitro sensitivity to the EGFR-tyrosine kinase inhibitor erlotinib. Cell lines were designated as “resistant” or sensitive” based upon an empirically determined threshold.
(§2) The panel of NSCLC cell lines were separated into sensitive and resistant to erlotinib treatment using an apoptosis assay after 48 h as a measure (Balko et al., 2006). […] All cell lines were passaged as previously published and harvested after 2 days growth in serum-containing media (Balko et al., 2006). Lung cancer cell lines sensitive to erlotinib (H322 and HCC827) and resistant to erlotinib (H2122 and H820) and pancreatic cancer cell lines sensitive to erlotinib (Aspc-1 and Bxpc-3) and resistant to erlotinib (Mia PaCa-2 and Panc-1) were used for validation of the predictor, as previously described, again harvested after 2 days growth in serum-containing media (Tzeng et al., 2007).

Experiment [2] relates to H1650. Description: erlotinib sensitivity, apoptosis assay after 48 h. Format: cell-based, human. As to conditions: NSCLC cell line H1650, apoptosis assay after 48 h. As for the experimental part:
as §1, §2

For experiment [3], the system named is H1975. Description: erlotinib sensitivity, apoptosis assay after 48 h. The conditions noted are these: NSCLC cell line H1975, apoptosis assay after 48 h. In kind it is cell-based, human. As to the method: as §1, §2
For experiment [4], the system named is H3255. Description: erlotinib sensitivity, apoptosis assay after 48 h. In kind it is cell-based, human. As to conditions: NSCLC cell line H3255, apoptosis assay after 48 h. As to the method: as §1, §2
The test system of experiment [5] is H358. Description: erlotinib sensitivity, apoptosis assay after 48 h. Format: cell-based, human. The conditions noted are these: NSCLC cell line H358, apoptosis assay after 48 h. As to the method:
as §1, §2

Experiment [6] has as its system H460. Description: erlotinib sensitivity, apoptosis assay after 48 h. As to conditions: NSCLC cell line H460, apoptosis assay after 48 h. Format: cell-based, human. As to the method:
as §1, §2

The subject of experiment [7] is PC-9. Description: erlotinib sensitivity, apoptosis assay after 48 h. In kind it is cell-based, human. The conditions noted are these: NSCLC cell line PC-9, apoptosis assay after 48 h. As for the experimental part:
as §1, §2

The test system of experiment [8] is UKY-29. Description: erlotinib sensitivity, apoptosis assay after 48 h. Format: cell-based, human. The conditions noted are these: NSCLC cell line UKY-29, apoptosis assay after 48 h. As for the experimental part: as §1, §2
Experiment [9] relates to H2122. Description: erlotinib sensitivity of validation lung cancer cell line. Format: cell-based, human. As to conditions: lung cancer cell line H2122, validation set. As for the experimental part: as §2
Experiment [10] concerns H322. The experiment is described as above. In kind it is cell-based, human. The conditions noted are these: lung cancer cell line H322, validation set. As for the experimental part: as §2
Experiment [11] has as its system H820. The experiment is described as above. In kind it is cell-based, human. The conditions noted are these: lung cancer cell line H820, validation set. As to the method: as §2
The test system of experiment [12] is HCC827. The description is as above. Format: cell-based, human. The conditions noted are these: lung cancer cell line HCC827, validation set. As to the method:
as §2

For experiment [13], the system named is Aspc-1. The conditions noted are these: pancreatic cancer cell line Aspc-1, validation set (Tzeng et al., 2007); cited from earlier work.
Experiment [14] deals with Bxpc-3. The conditions noted are these: pancreatic cancer cell line Bxpc-3, validation set (Tzeng et al., 2007); cited from earlier work.
The test system of experiment [15] is Mia PaCa-2. The conditions noted are these: pancreatic cancer cell line Mia PaCa-2, validation set (Tzeng et al., 2007); cited from earlier work.
The subject of experiment [16] is Panc-1. As to conditions: pancreatic cancer cell line Panc-1, validation set (Tzeng et al., 2007); cited from earlier work.

Turning to `C#Cc1cccc(Nc2ncnc3cc(OCCOC)c(OCCOC)cc23)c1` [erlotinib], the “sensitivity to erlotinib treatment” value in experiment [1] was “Resistant”; in experiment [2], “sensitive”; in [3], “Resistant”; in [4], “sensitive”; in experiment [5], “sensitive”; in [6], “Resistant”. For the same compound, the entries for the “sensitivity to erlotinib treatment” value in [7] and in experiment [8] were “sensitive” and “Resistant”, respectively. The sensitivity to erlotinib result in experiment [9] is recorded as “resistant”; in [10] it was “sensitive”; in experiment [11], “resistant”; in experiment [12] it was “sensitive”; in experiment [13] it was “sensitive”; in experiment [14] it was “sensitive”. For the same compound, the sensitivity to erlotinib result in experiment [15] and in [16] was “resistant” throughout.
